Consider 26 compounds from PubChem BioAssay (NCI).

Structures are written as SMILES.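 Assay format: 96-well plates, 48-hour exposure. At the GI50, growth is halved. TGI: concentration producing complete growth inhibition.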 Where a SMILES comes first, the peptide text is derived from it.

What all share (test): NCI-60 cell line screen, 48 h
Test [1] has as its system IGROV1 ovarian.
Test [2] deals with HCC-2998 colon.
In test [3] the test system is UO-31 renal.
Test [4] relates to OVCAR-8 ovarian.
For test [5], the system named is NCI-H23 lung.
Test [6] relates to HT29 colon.
Test [7] concerns U251 CNS.
Test [8] concerns NCI-H226 lung.
Test [9] concerns DU-145 prostate.
For test [10], the system named is HCT-116 colon.

As for `CC(C)C1OC(=O)/C=C/C=C/C=C/C=C/C=C/CC(O)C(C)C(O)CC(O)CC(O)CC(O)CC(O)CC(O)CC(O)/C=C/C1C` (stereo unspecified), the TGI in test [1], in [2], in [3], in test [4], in test [5] and in test [6] was greater than 100 µM throughout. In [7], this compound gave a TGI greater than 100 µM.
Consider `C/C(N=Nc1nc2ccccc2[nH]1)=C1/C=CC=CN1O`, for which the TGI in [1], in [8], in [2], in test [3], in [9] and in [10] was greater than 100 µM in each case. Further, the TGI in [4], in test [5], in test [6] and in [7] was greater than 100 µM in each case.
Turning to `COC(OC)C1OC(CO)C(n2cc(F)c(=O)[nH]c2=O)C1O` (stereo unspecified), the TGI in [1] was greater than 100 µM; in test [8] it was greater than 100 µM; in test [2] it was greater than 100 µM; in test [3], greater than 100 µM; in test [9], 64.4 µM; in test [10], greater than 100 µM. For the same compound, the TGI in [4], in [5], in [6] and in test [7] was greater than 100 µM in each case.
In the case of `C1=CC(=[N+]2N=C(c3ccccc3)CC2c2ccccc2)C=CC1=C1SC(c2ccccc2)(c2ccccc2)c2ccccc21` (stereo unspecified), the TGI in test [1], in test [8], in test [2], in test [3], in test [9] and in test [10] was greater than 100 µM throughout. Further, the TGI in test [4], in test [5], in test [6] and in test [7] was greater than 100 µM throughout.
With `COc1cc2c(cc1OCCCCCCCCN1C(=O)c3cccc4cccc(c34)C1=O)N=C[C@@H]1CCCN1C2=O`, the TGI in test [1] is 64.7 µM; in [8], 46.8 µM; in test [2], 30.7 µM; in test [3] it was greater than 100 µM; in test [9] it was greater than 100 µM; in [10], greater than 100 µM. The TGI in test [4] was found to be 57.8 µM; in test [5], 36.3 µM; in test [6] it was 36.2 µM; in test [7], 25.3 µM.
Turning to `COC(CN(C=O)[C@@H](c1ccc(Cl)cc1)c1cc2ccccc2o1)OC`, the TGI in test [1] was determined as 30.7 µM; in test [8] it was 34 µM; in [3], 31.2 µM; in test [9], 30.9 µM; in test [10], 32.9 µM; in [4], 31.3 µM. In addition, the TGI in test [5] is 39.2 µM; in [6], 36.3 µM; in test [7] it was 31.8 µM.
For `O=S(=O)(O)c1cc(N=[N+]([O-])c2cc(S(=O)(=O)O)c3ccccc3c2)cc2ccccc12`, the TGI in test [1] is greater than 100 µM; in test [8], greater than 100 µM; in test [2], greater than 100 µM; in test [3], 50.2 µM; in [9], 40.1 µM; in [10], greater than 100 µM. Moreover, the TGI in test [4] was greater than 100 µM; in test [5], 77 µM; in [6] it was greater than 100 µM; in [7], greater than 100 µM.
On to `O=C(O)C(O)C(O)C(O)C(=O)CO` (stereo unspecified), for which the TGI in test [1], in test [8], in [2], in test [3], in [9] and in test [10] was greater than 100 µM throughout. For the same compound, the TGI in test [4], in [5], in [6] and in [7] was greater than 100 µM in each case.
On to `CCCSc1ccc2[nH]c(N3C(=O)/C(=C/c4cc(OC)c(OC)c(OC)c4)N=C3c3ccccc3)cc2c1`, for which the TGI was greater than 37.5 µM in [1]; greater than 37.5 µM in [8]; greater than 32.6 µM in test [2]; greater than 37.5 µM in [3]; greater than 37.5 µM in test [9]; greater than 37.5 µM in test [10]. The TGI in [4], in test [5], in test [6] and in test [7] was greater than 37.5 µM in each case.
Turning to `O=C1/C(=C\c2ccc(F)cc2)CCOc2c1ccc1ccccc21`, the GI50 was greater than 100 µM in test [1] and 33.6 µM in [8]. Moreover, the TGI was greater than 100 µM in test [1]; greater than 100 µM in test [8]; 17.7 µM in [2]; greater than 100 µM in test [3]; 98 µM in test [9]; 10.7 µM in test [10]. Also, the TGI in test [4] was 35.2 µM; in test [5], 39.4 µM; in test [6] it was greater than 56.8 µM; in test [7], greater than 100 µM.
Take `COc1cc2c(cc1C)NC(=O)/C2=C/c1c(Cl)n(-c2ccccc2)c2ccccc12`: the TGI in test [1] was greater than 100 µM; in test [2], 24.2 µM; in test [3], greater than 100 µM; in test [9] it was greater than 100 µM; in test [10] it was 61.1 µM; in test [4], greater than 100 µM. The results for the TGI in [5], in test [6] and in test [7] were 81.8 µM, greater than 100 µM and 64.3 µM, respectively.
For `CCCN1C(=O)CSC1=Nc1ccc2cc3ccc(N=C4SCC(=O)N4CCC)cc3nc2c1`, the GI50 in test [8] was 16.5 µM; in [2], greater than 100 µM; in test [3], 41.1 µM; in test [9], 30.8 µM; in test [10] it was 14.3 µM; in test [4], 50.7 µM. Further, the GI50 in test [5] was 71.1 µM; in [6] it was 90.6 µM; in test [7], 48.2 µM. The TGI in test [8] is greater than 100 µM; in [2] it was greater than 100 µM; in [3], greater than 100 µM; in [9] it was greater than 100 µM; in test [10], 34.8 µM; in [4], greater than 100 µM. Moreover, the TGI in test [5], in test [6] and in [7] was greater than 100 µM each time.
As for `CCOC(=O)C(=O)NCCCN1CCOCC1`, the TGI in test [1], in test [8], in test [2], in [3], in [10] and in [4] was greater than 100 µM each time. Besides, the TGI in test [5], in test [6] and in [7] was greater than 100 µM throughout.
For the compound `O=C1CC2(CCC(O)(c3cccs3)C(C(=O)c3cccs3)C2)C(=O)c2ccccc2N1` (stereo unspecified), the TGI in test [1], in test [8], in test [2], in [3], in test [9] and in [10] was greater than 100 µM each time. The TGI in [4], in [5], in test [6] and in test [7] was greater than 100 µM in each case.
For `CC(=O)c1ccc2c(c1)N(CCCN1CCN(CCO)CC1)c1ccccc1C2`, the TGI is 31.3 µM in test [1]; 30.9 µM in [8]; 38.9 µM in [3]; 28 µM in test [9]; 30.5 µM in [10]; 30.7 µM in [4]. The figures for the TGI in test [5], in [6] and in test [7] were 30.1 µM, 22.4 µM and 29.8 µM, respectively.
Consider `COC(=S)OC1CC(n2cnc3c(N)ncnc32)OC1CO[Si](C)(C)C(C)(C)C` (stereo unspecified), for which the TGI in test [1] turned out to be 43.8 µM; in test [8], 59.2 µM; in [3], 40.8 µM; in test [9], 38.5 µM; in [10] it was 31.3 µM; in [4] it was 69.5 µM. The TGI in test [5] was determined as 38.7 µM; in test [6], 30.1 µM; in [7] it was 28.1 µM.
In the case of `Nc1cc(-c2ccc(Cl)cc2)nn1-c1nc2ccccc2nc1-c1ccccc1`, the TGI in test [1], in test [8], in [2], in test [9], in test [10] and in [4] was greater than 100 µM each time. Besides, the TGI in [6] and in test [7] was greater than 100 µM in each case.
In the case of `O=c1[nH]c(Nc2ccc(Cl)cc2)nc2nc[nH]c12`, the TGI in test [1], in test [8], in test [2], in test [9], in [10] and in [4] was greater than 100 µM each time. For the same compound, the TGI in test [5], in [6] and in [7] was greater than 100 µM throughout.
Take `COC(=O)C[C@H](COCc1ccccc1)NC(=O)C[C@H](COCc1ccccc1)NC(=O)OC(C)(C)C`: the TGI in [1] is greater than 100 µM; in [8] it was greater than 100 µM; in [3], greater than 100 µM; in [9], 44.9 µM; in test [10], 81.2 µM; in [4], 61.7 µM. For the same compound, the TGI was greater than 100 µM in test [5], greater than 100 µM in test [6] and 67.7 µM in test [7].
Consider `Cc1cnoc1NS(=O)(=O)c1ccc(Nc2nnc(/C=C/c3c(O)ccc4ccccc34)c(=O)n2N)cc1`, for which the TGI in test [1] is greater than 100 µM; in [3], greater than 100 µM; in [9], greater than 100 µM; in test [10] it was 55.9 µM; in test [4], greater than 100 µM; in test [5], 32 µM. In [6], the TGI was greater than 100 µM.
`COc1ccc(C(=O)N(C(=O)N2CCN(c3ccccc3)CC2)S(=O)(=O)c2ccccc2)cc1`: the TGI was 58.8 µM in test [8]; greater than 100 µM in test [2]; 26.7 µM in test [3]; 72.2 µM in test [9]; 42.1 µM in test [10]; 53.5 µM in [4]. Also, the TGI was 73.2 µM in test [5], greater than 100 µM in test [6] and 35.3 µM in test [7].
As for `COc1ccc(C2c3cc4c(cc3OC(O)(CO)C2C(=O)O)OCO4)cc1` (stereo unspecified) (tested in a mixture with another compound), the TGI in [1] was 43.5 µM; in test [8] it was 47.7 µM; in test [2] it was 38.2 µM; in test [3], greater than 100 µM; in test [10] it was 33.1 µM; in test [4] it was 48.5 µM. For the same compound, the values for the TGI in [5], in test [6] and in test [7] were 50.8 µM, 52.4 µM and 36.5 µM, respectively.
Regarding `CCC(C)C(NC(=O)C1CCCN1C(=O)C(CC(C)C)NC(=O)C(CC(C)C)NC(=O)C(N)CC(C)C)C(=O)NC(C(=O)NCC(=O)NC(CC(N)=O)C(=O)NC(CC(C)C)C(=O)NC(CC(C)C)C(=O)NC(CC(C)C)C(N)=O)C(C)C` (stereo unspecified) (H-LLLPIVGNLLL-NH2; configuration not given here), the TGI in test [1], in test [8], in [3], in test [9], in [10] and in test [4] was greater than 50 µM each time. Also, the TGI in [5], in test [6] and in test [7] was greater than 50 µM throughout.
`CC(=O)Oc1ccc(CO)cc1OC(C)=O`: the TGI in [8], in [3], in test [10], in test [4], in [6] and in test [7] was greater than 100 µM throughout.
Consider `Cc1ccccc1NC(=O)CC(=O)N1N=C(N2c3ccccc3Sc3ccccc32)CC1c1ccccc1` (stereo unspecified), for which the TGI in test [1], in test [8], in test [2], in test [3], in [10] and in test [4] was greater than 100 µM throughout. Besides, the TGI in [5], in [6] and in test [7] was greater than 100 µM in each case.
For the compound `COc1cc([C@@H]2c3cc4c(cc3[C@@H](c3c(O)cc(O)c5c3O[C@H](c3ccc(O)c(O)c3)[C@H](OC(=O)c3cc(O)c(O)c(O)c3)C5)[C@H]3COC(=O)[C@H]23)OCO4)cc(OC)c1OC`, the TGI in [1] is greater than 100 µM; in test [8], 7.53 µM; in test [2], 71.7 µM; in [9] it was greater than 100 µM; in test [10], greater than 100 µM; in [4] it was greater than 100 µM. Moreover, the TGI was greater than 100 µM in test [5], greater than 75.9 µM in [6] and greater than 100 µM in test [7].
